Data taken from US11357850B2, “Methods for treating breast cancer using INOS-inhibitory compositions” (The Methodist Hospital, priority 2014, dated 2022).

Experiments:
[1] = tested on: adenoid cystic carcinoma of the oral cavity; settings: mouse, in vivo; cited from earlier work
[2] = tested on: MCF10A; assay: Western blot of PERK/eIF2α/ATF4/ATF3 axis with recombinant TGFβ1; assay type: cell-based; settings: 1400 W 4 mM co-treatment with recombinant TGFβ1 for 24 hrs
Excerpt: FIG. 3A, FIG. 3B, FIG. 3C, FIG. 3D, FIG. 3E, FIG. 3F, FIG. 3G, FIG. 311, FIG. 3I, and FIG. 3J show iNOS knockdown impairs tumorigenicity and EMT by a dual impact on HIF1α and endoplasmic reticulum (ER) stress/TGFβ/AFT4/ATF3 crosstalk. Proliferation (FIG. 3A), migration (FIG. 3B), and self-renewal capacity (primary and secondary mammospheres) (FIG. 3C) in MDA-MB-231 cells transfected with two different NOS2-directed shRNAs (shRNA1, shRNA2) compared with empty vector (shRNA-EV). […] Selective iNOS inhibition reduced hypoxia (HIF1α), ER stress markers (IRE1α, ATF4) (FIG. 3F), phospho-Smad2/3, Smad2/3 and mature TGFβ protein levels in MDA-MB-231 and SUM159 cells (FIG. 3G). FIG. 3H: Recombinant TGFβ1 (10 ng/mL for 24 hrs) activates the PERK/eIF2α/ATF4/ATF3 axis in MCF10A. […] FIG. 3J: Selective iNOS inhibition is postulated to impair EMT and tumor cell migration by an impact on HIF1α, ER stress (IRE1α/XBP1) and the crosstalk between ATF4, ATF3 and TGFβ. Results were normalized to empty vector. Data are presented as mean±SEM. ****p<0.0001, ***p<0.001, **p<0.01. One-way ANOVA and Bonferroni's post-hoc test;
Western Blot. Cells were cultured at a density of 2.5×10^5 cells/well in 6-well plates with or without iNOS inhibitors for 96 hrs. Cells were resuspended in 1× lysis buffer (Cell Signaling Technology, Inc.) and 1× protease/phosphatase inhibitor cocktail (Thermo Scientific). […]

[3] = tested on: MDA-MB-231; assay: Western blot / RT-PCR of EMT, hypoxia, ER stress and TGFβ markers; assay type: cell-based, human
Procedure: (§1) Protein levels of iNOS and EMT-inducing factors were determined by Western blot with antibodies against: iNOS (N-20) and Twist1 (L-21) (Santa Cruz Biotechnology), Snail (C15D3), Slug (C19G7) and TCF8/Zeb1 (D80D3) (Cell Signaling) (1:1000 dilution). β-actin (Cell Signaling; 1:2000) was used as loading control;
(§2) Western Blot. […] Cells were resuspended in 1× lysis buffer (Cell Signaling Technology, Inc.) and 1× protease/phosphatase inhibitor cocktail (Thermo Scientific). Samples (30 μg protein) were boiled in 4×LDS sample buffer (Thermo Scientific) containing […] (Sigma-Aldrich) and subjected to SDS-PAGE electrophoresis in 4-20% polyacrylamide gels (Bio-Rad, Hercules, Calif., USA). Proteins were transferred onto nitrocellulose membranes (Bio-Rad) and non-specific binding was avoided incubating with 5% non-fat dry milk in 1×Tris-buffered saline (TBS) for 1 hr. Membranes were incubated overnight at 4° C. with primary antibodies (1:1,000 dilution; anti-β-Actin, 1:2,000 dilution). After washing and incubation with the appropriate secondary antibodies for 1 hr (1:2,000 dilution), membranes were washed and incubated with enhanced chemiluminescence substrate. Protein bands were developed in autoradiography films (Denville Scientific, Inc., Holliston, Mass., USA).
RT-PCR Analysis of Spliced XBP1. […] The PCR amplification (50 ng cDNA) was done with […] Taq DNA polymerase (native, 5 U/μL), 0.2 mM dNTP, 1.5 mM MgCl2 (50 mM) and 0.5 μM of each primer.

[4] = tested on: HRT-18 cells; settings: daily treatment with 500 μM; cited from earlier work
[5] = tested on: MDA-MB-231; assay: Cell migration, wound healing assay; assay type: cell-based, human; settings: 96 hrs treatment, wound healing 12 hrs
Procedure: (§3) FIG. 18A and FIG. 18B show the migration of MDA-MB-231 and SUM159 cells was assessed by “wound healing” assay. Briefly, 3×10^5 cells were plated in a 6-well plate until confluence in growth medium. […] A “wound” was then created in the cell monolayer. Images were taken at 0 and 12 hrs. Wound-healing capacity was determined with the software Image J. Data were replicated in three independent experiments. Results were normalized to vehicle;
(§4) Cell migration capacity. Cell migration was determined with a “wound healing assay.” Briefly, 3×10^5 cells/well were grown in 6-well plates until confluence. […] To avoid an impact on cell proliferation, low serum medium was changed by regular growth medium in presence of inhibitors for 24 hrs (96 hrs total). A “wound” was then created in the cell monolayer with a 100-4, pipette tip. Images were taken at 0 hrs, and cells were allowed to heal the wound for 12 hrs. Wound-healing capacity was determined with the software Image J. Data were replicated in three independent experiments.

[6] = tested on: SUM159; assay: Cell migration, wound healing assay; assay type: cell-based, human; settings: 96 hrs treatment, wound healing 12 hrs
Procedure: as §3, §4

[7] = tested on: SUM159; assay: Western blot of EMT, hypoxia, ER stress and TGFβ markers; assay type: cell-based, human
Procedure: as §1, §2

[8] = millimolar and micromolar concentrations, 96 hrs

CC(=N)NCc1cccc(CN)c1 [1400 W, N-[[3-(aminomethyl)phenyl]methyl]-ethanimidamide]
spontaneous lung metastasis [1]: markedly inhibit spontaneous lung metastasis | stimulation of ATF4 and ATF3 protein levels by TGFβ1 [2]: inhibit the stimulation of ATF4 and ATF3 protein levels | ER stress markers IRE1α/splicedXBP1 and ATF4 ([3]; 96 hrs): dose-dependent decrease | hypoxia (HIF1α) ([3]; 96 hrs): dose-dependent decrease | TGFβ signaling (phospho-Smad2/3, Smad2/3 and mature TGFβ) ([3]; absence and presence of recombinant TGFβ1 (10 ng/mL for 72 hrs)): inhibit TGFβ signaling | protein levels of the EMT transcription factors Snail, Slug, and Twist1 [3, 8]: reduction in protein levels | Zeb1 protein levels ([3]; millimolar concentrations): decreased | invasiveness [4]: substantially decreased | migration ([5]; micromolar range): marked dose-dependent decrease in migration | migration ([5]; millimolar range): marked dose-dependent decrease in migration | migration ([6]; micromolar range): marked dose-dependent decrease in migration | migration ([6]; millimolar range): marked dose-dependent decrease in migration | hypoxia (HIF1α) ([7]; 96 hrs): dose-dependent decrease | TGFβ signaling (phospho-Smad2/3, Smad2/3 and mature TGFβ) ([7]; absence of recombinant TGFβ1): inhibit TGFβ signaling | protein levels of the EMT transcription factors Snail, Slug, and Twist1 [7, 8]: reduction in protein levels | Zeb1 protein levels ([7]; millimolar concentrations): decreased | ER stress markers IRE1α and ATF4 ([7]; splicedXBP1 was not detected in SUM159 cells): dose-dependent decrease
